In patent US8258114B2, “Modulation of glucose-6-phosphatase translocase expression” (Isis Pharmaceuticals, Inc., priority 2004, dated 2012):
Read-outs that look alike come from different tables or passages of the source.

Assays:
[1] = Liver triglycerides and liver glycogen in lean ob/ob+/- mice; assay type: in vivo, mouse; conditions: 50 mg/kg s.c. twice weekly, five doses; for Liver glycogen levels: saline approximately 37
Description: (§1) Ob/ob mice have a mutation in the leptin gene which results in obesity and hyperglycemia. […] Seven-week old ob/ob+/−male mice were dosed twice weekly with 50 mg/kg of antisense oligonucleotide, given subcutaneously. A total of five doses were given. glucose-6-phosphatase translocase antisense oligonucleotides used were ISIS 148985 (SEQ ID NO: 118) and ISIS 149008 (SEQ ID NO: 141). Each treatment group was comprised of 4 animals. Animals were sacrificed 48 hours after the last dose of oligonucleotide was administered, and liver triglycerides, liver glycogen content, and target reduction in liver were measured.
Liver triglyceride levels are used to assess hepatic steatosis, or accumulation (poor clearing) of lipids in the liver. Tissue triglyceride levels were measured using a Triglyceride GPO assay from Roche Diagnostics (Indianapolis, Ind.). Liver triglycerides were about 19 mg/dL for saline treated lean mice and were about 14 mg/dL for ISIS 149008-treated lean mice.
Tissue glycogen was measured using the Glucose Trinder Reagent (Sigma-Aldrich, St. Louis, Mo.). Glycogen levels of lean mice treated with saline alone were approximately 37 mg/g of tissue. Mice treated with ISIS 149008 or 148985, the antisense inhibitors of glucose-6-phosphatase translocase, had glycogen levels of approximately 39 mg/g and 36 mg/g, respectively.

[2] = system: glucose-6-phosphatase translocase mRNA; experiment: Target mRNA reduction in liver of lean ob/ob+/- mice; assay type: in vivo, mouse; conditions: 50 mg/kg s.c. twice weekly, five doses
Description: as §1
Glucose-6-phosphatase translocase mRNA levels in liver were measured at the end of study using RiboGreen™ RNA quantification reagent (Molecular Probes, Inc. Eugene, Oreg.) as taught in previous examples above.
Glucose-6-phosphatase translocase mRNA levels were reduced by approximately 51% in lean mice treated with ISIS 148985, and by approximately 88% in lean mice treated with ISIS 149008, when compared to saline treatment. Thus the antisense compounds ISIS 149008 and ISIS 148985 were effective in reducing liver glucose-6-phosphatase translocase mRNA levels in vivo.

[3] = system: ob/ob mice; experiment: Glycerol tolerance test in ob/ob mice; assay type: in vivo, mouse; conditions: 25 mg/kg twice weekly, after 6th dose, glycerol 1 g/kg oral
Description: The mice described in Example 7 were evaluated for performance on glycerol tolerance tests after the 6th dose of saline or antisense oligonucleotides. This is a functional measure of glucose-6-phosphatase translocase inhibition; i.e., whether the conversion of […] to glucose is impaired by antisense inhibitors of glucose-6-phosphatase translocase.
Glycerol tolerance tests were performed after treatment with saline, ISIS 148985 (SEQ ID NO: 118), or ISIS 149008 (SEQ ID NO: 141). Glycerol was administered by oral gavage via an 18 g gavage needle at a dose of 1 g/kg. Plasma glucose levels were measured for 30, 60, 90 and 120 minutes post-challenge using an Ascencia Glucometer Elite XL (Bayer, Tarrytown, N.Y.) and plotted over time. Area under the curve (AUC) for each treatment graph was calculated.

[4] = system: catalytic subunit of glucose-6-phosphatase (G6PC) mRNA; experiment: Reduction of catalytic subunit of glucose-6-phosphatase (G6PC) mRNA in liver or kidney of ZDF rats (Table 15); assay type: in vivo, rat; conditions: alone or with rosiglitazone 3 mg/kg daily
Description: (§2) Saline-injected animals served as a control treatment group.
At the end of the treatment period, animals were sacrificed and target reduction in liver and kidney were measured by real-time PCR as described in other examples herein. Also measured were reductions in the catalytic subunit of glucose-6-phosphatase (G6PC) using a primer-probe set designed to hybridize to that mRNA. For example, the following primer-probe set was designed to hybridize to rat glucose-6-phosphatase translocase sequences cited in Table 1:
Results for each treatment group are shown in Table 15 as the average percent reduction in glucose-6-phosphatase translocase levels or in G6PC as compared to saline treated control.

[5] = system: glucose-6-phosphatase translocase mRNA; experiment: Target reduction in liver: rat dose-response study (Table 12); assay type: in vivo; conditions: Sprague-Dawley rats; for % Inhibition, target reduction in liver: three weeks
Description: Each treatment group was comprised of 4 animals.
At the end of the treatment period, animals were sacrificed and target reduction in liver was measured by real-time PCR as described in other examples herein. Results are shown in Table 12 as the average percent reduction in glucose-6-phosphatase translocase levels as compared to saline treated control.

[6] = system: rat glucose-6-phosphatase translocase mRNA; experiment: Reduction of glucose-6-phosphatase translocase mRNA in liver or kidney of ZDF rats (Table 15); assay type: in vivo; conditions: for % Inhibition of glucose-6-phosphatase translocase, Kidney / % Inhibition of glucose-6-phosphatase translocase, Liver: alone or with rosiglitazone 3 mg/kg daily
Description: Saline-injected animals served as a control treatment group. At the end of the treatment period, animals were sacrificed and target reduction in liver and kidney were measured by real-time PCR as described in other examples herein. […] For example, the following primer-probe set was designed to hybridize to rat glucose-6-phosphatase translocase sequences cited in Table 1: Forward primer: [NT] (incorporated herein as SEQ ID NO: 339) Reverse primer: [NT] (incorporated herein as SEQ ID NO: 340) PCR probe: […] (incorporated herein as SEQ ID NO: 341), where FAM is the fluorescent dye and TAMRA is the quencher dye.

[7] = rat, in vivo
[8] = rat, in vivo; remark: listed apart in the source
Description: (§3) Male Zucker fa/fa rats, about 17 to 18 weeks of age, purchased from Charles River Laboratories (Wilmington, Mass.), are maintained on a normal rodent diet. Animals are placed into treatment groups of 8 animals each. […] Another treatment group received the food-administered daily doses of 3 mg/kg of rosiglitazone alone. Saline-injected animals served as a control treatment group.
The liver transaminases, ALT and AST, were measured throughout the study.

[9] = rat, in vivo; remark: listed apart in the source
Description: Male Zucker fa/fa rats, about 17 to 18 weeks of age, purchased from Charles River Laboratories (Wilmington, Mass.), are maintained on a normal rodent diet. Animals are placed into treatment groups of 8 animals each. One treatment group was dosed subcutaneously twice weekly with 12.5 mg/kg of ISIS 366228 (SEQ ID NO: 203). Another treatment group was dosed twice weekly with 25 mg/kg of ISIS 366228. Other treatment groups were dosed with 12.5 mg/kg or 25 mg/kg ISIS 366228 twice weekly in combination with daily 3 mg/kg doses of rosiglitazone (Rosi) administered in powdered food. Another treatment group received the food-administered daily doses of 3 mg/kg of rosiglitazone alone. Saline-injected animals served as a control treatment group.
Tissue weights were also determined at the end of the study.

[10] = rat, in vivo; remark: listed apart in the source
Description: as §3
Also monitored throughout the study was body composition. Baseline body composition was measured by MRI prior to the start of treatment (BL). Body composition was also measured during week 3 (Wk 3) and during week 5 (Wk 5) of treatment.

[11] = system: aged Zucker fa/fa rats; experiment: Oral glucose tolerance test in ZDF rats (Table 17); assay type: in vivo, rat; conditions: alone or with Rosi
Description: as §2
To further evaluate the effects of ISIS 366228 alone or in combination with rosiglitazone, oral glucose tolerance tests were performed during the third week of treatment. To provide a baseline glucose level, fasted blood glucose levels were measured before the challenge. Glucose was administered by oral gavage via an 18 gauge gavage needle at a dose of 1 g/kg. Plasma glucose levels were measured for 15, 30, 60, 90, and 120 minutes post-challenge, using a glucose analyzer (for example, an Ascencia Glucometer Elite XL, Bayer, Tarrytown, N.Y.).

[12] = ISIS 366228 12.5 mg/kg twice weekly
[13] = ISIS 366228 25 mg/kg twice weekly

GCTCCATAGCGAGGACTCGA (chemistry not given here) [ISIS 148985]
Liver glycogen levels [1]: ~36 mg/g | Glucose-6-phosphatase translocase mRNA levels in liver, reduction compared to saline [2]: approximately 51% | decrease in AUC of plasma glucose compared to saline, glycerol tolerance test [3]: did not show significant decrease in AUC

GTGCTTGGCGATGGTACTGA (chemistry not given here) [ISIS 366228]
% Inhibition of G6PC, Kidney [4, 12]: 17% | % Inhibition of G6PC, Liver [4, 12]: 39% | % Inhibition of G6PC, Kidney [4, 13]: 33% | % Inhibition of G6PC, Liver [4, 13]: 0% | % Inhibition, target reduction in liver ([5]; 12.5 mg/kg twice weekly): 69% | % Inhibition, target reduction in liver ([5]; 25 mg/kg twice weekly): 82% | % Inhibition, target reduction in liver ([5]; 50 mg/kg twice weekly): 90% | target mRNA levels in rat liver (in words) ([5]; 12.5 to 50 mg/kg): effective in reducing target mRNA levels in rat liver in a dose-dependent manner | glucose-6-phosphatase translocase levels in liver and kidney (in words) [6]: reduced glucose-6-phosphatase translocase levels in liver and kidney at both doses | % Inhibition of glucose-6-phosphatase translocase, Kidney [6, 12]: 35% | % Inhibition of glucose-6-phosphatase translocase, Liver [6, 12]: 40% | % Inhibition of glucose-6-phosphatase translocase, Kidney [6, 13]: 46% | % Inhibition of glucose-6-phosphatase translocase, Liver [6, 13]: 80% | body weight (in words) [7]: did not cause increased body weight | liver transaminases ALT and AST (in words) [8]: reductions in levels of these indicators of liver function | renal enlargement (in words) [9]: renal enlargement associated with human glycogen storage disease type 1B is not observed | Fat pad weight ([9]; 12.5 mg/kg): 7 grams | Fat pad weight ([9]; 25 mg/kg): 6 grams | body fat percentage (in words) [10]: did not cause marked increases in body fat percentage | plasma glucose, OGTT ([11]; week 3, ISIS 366228 12.5 mg/kg, 0 min (fasted)): 317 mg/dL | plasma glucose, OGTT ([11]; week 3, ISIS 366228 12.5 mg/kg, 15 min): 418 mg/dL | plasma glucose, OGTT ([11]; week 3, ISIS 366228 12.5 mg/kg, 30 min): 553 mg/dL | plasma glucose, OGTT ([11]; week 3, ISIS 366228 12.5 mg/kg, 60 min): 485 mg/dL | plasma glucose, OGTT ([11]; week 3, ISIS 366228 12.5 mg/kg, 90 min): 441 mg/dL | plasma glucose, OGTT ([11]; week 3, ISIS 366228 12.5 mg/kg, 120 min): 444 mg/dL | plasma glucose, OGTT ([11]; week 3, ISIS 366228 25 mg/kg, 0 min (fasted)): 303 mg/dL | plasma glucose, OGTT ([11]; week 3, ISIS 366228 25 mg/kg, 15 min): 453 mg/dL | plasma glucose, OGTT ([11]; week 3, ISIS 366228 25 mg/kg, 30 min): 540 mg/dL | plasma glucose, OGTT ([11]; week 3, ISIS 366228 25 mg/kg, 60 min): 461 mg/dL | plasma glucose, OGTT ([11]; week 3, ISIS 366228 25 mg/kg, 90 min): 427 mg/dL | plasma glucose, OGTT ([11]; week 3, ISIS 366228 25 mg/kg, 120 min): 408 mg/dL

TATACAAGTCGGTTTGCCCT (chemistry not given here) [ISIS 149008]
Liver Triglycerides ([1]; saline about 19): about 14 mg/dL | Liver glycogen levels [1]: approximately 39 mg/g | Glucose-6-phosphatase translocase mRNA levels in liver, reduction compared to saline [2]: approximately 88% | decrease in AUC of plasma glucose compared to saline, glycerol tolerance test [3]: approximately 30%
